This note sets out measurements from patent US8349824B2, “Triazolopyridine compounds” (Hoffmann-La Roche Inc., priority 2010, dated 2013).

The target of one series is T1, human PDE10A full length (Homo sapiens, UniProt Q9Y233).
T1 construct: purchased Enzo Life Science, Lausen, Switzerland SE-534
The series is described as follows: PDE10A Scintillation Proximity Assay (SPA), human PDE10A full length assay. The format is biochemical. The settings on record: 50 nM cGMP + 50 nM [3H]-cGMP, 20 minutes at room temperature, read-out: PDE10A inhibition IC50. In short, it runs like this:
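SPA format with full-length enzyme in 20 mM HEPES pH 7.5, 10 mM MgCl2, 0.05 mg/ml BSA, substrate 50 nM cGMP plus 50 nM [3H]-cGMP. Reaction started with substrate, run 20 min at room temperature, stopped with YSi-SPA beads in zinc sulphate. IC50 from scintillation counts over an inhibitor concentration range.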

T1 sequence (Q9Y233 1-779 isoform Q9Y233-1): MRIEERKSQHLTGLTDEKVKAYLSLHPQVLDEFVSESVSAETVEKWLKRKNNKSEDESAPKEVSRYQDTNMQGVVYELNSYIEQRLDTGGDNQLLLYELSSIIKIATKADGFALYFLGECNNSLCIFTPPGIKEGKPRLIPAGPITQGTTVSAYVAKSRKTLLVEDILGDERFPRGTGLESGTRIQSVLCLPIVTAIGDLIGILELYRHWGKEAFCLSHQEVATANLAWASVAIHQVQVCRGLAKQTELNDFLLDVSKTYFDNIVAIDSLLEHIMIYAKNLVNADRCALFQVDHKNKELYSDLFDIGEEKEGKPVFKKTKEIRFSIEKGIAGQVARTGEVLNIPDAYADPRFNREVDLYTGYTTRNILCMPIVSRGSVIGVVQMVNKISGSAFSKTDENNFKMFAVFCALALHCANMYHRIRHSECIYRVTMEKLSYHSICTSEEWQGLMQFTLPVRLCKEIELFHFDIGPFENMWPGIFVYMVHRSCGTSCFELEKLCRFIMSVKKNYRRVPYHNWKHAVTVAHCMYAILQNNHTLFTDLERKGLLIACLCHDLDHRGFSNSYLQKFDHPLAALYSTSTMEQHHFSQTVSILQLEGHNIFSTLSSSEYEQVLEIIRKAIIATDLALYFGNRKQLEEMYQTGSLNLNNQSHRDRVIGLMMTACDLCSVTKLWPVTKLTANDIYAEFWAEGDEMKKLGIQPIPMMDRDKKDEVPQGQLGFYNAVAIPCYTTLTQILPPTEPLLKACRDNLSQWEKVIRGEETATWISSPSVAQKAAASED

On to `Cn1ncc(C(=O)N2CCC2)c1C(=O)Nc1ccn2nc(N3CCCC3)nc2c1` [Example 60, 4-(Azetidine-1-carbonyl)-2-methyl-2H-pyrazole-3-carboxylic acid (2-pyrrolidin-1-yl-[1,2,4]triazolo[1,5-a]pyridin-7-yl)-amide], for which the melting point was > 250 °C. Besides, at human PDE10A full length, the 50% inhibitory concentration (IC50) was 3.16 nM.
The like results for `Cn1ncc(C(=O)N2CCOCC2)c1C(=O)Nc1ccn2nc(N3CCCC3)nc2c1` [Example 61, 2-Methyl-4-(morpholine-4-carbonyl)-2H-pyrazole-3-carboxylic acid (2-pyrrolidin-1-yl-[1,2,4]triazolo[1,5-a]pyridin-7-yl)-amide] were, in that order, 194 to 197 °C and 0.94 nM.
In turn, `CCNC(=O)c1nc2cc(NC(=O)c3c(C(=O)N4CCC4)cnn3C)ccn2n1` [Example 63, 7-{[4-(Azetidine-1-carbonyl)-2-methyl-2H-pyrazole-3-carbonyl]-amino}-[1,2,4]triazolo[1,5-a]pyridine-2-carboxylic acid ethylamide] showed a melting point of 217 to 229 °C. The IC50 on human PDE10A full length stood at 93.7 nM.
The molecule `COCCNC(=O)c1nc2cc(NC(=O)c3c(C(=O)N4CCC4)cnn3C)ccn2n1` [Example 64, 7-(4-(Azetidine-1-carbonyl)-1-methyl-1H-pyrazole-5-carboxamido)-N-(2-methoxyethyl)-[1,2,4]triazolo[1,5-a]pyridine-2-carboxamide] gave a melting point of 159 to 161 °C. The IC50 at human PDE10A full length turned out to be 104 nM.
For `Cn1ncc(C(=O)N2CCC2)c1C(=O)Nc1ccn2nc(Br)nc2c1` [Example 65, 4-(Azetidine-1-carbonyl)-2-methyl-2H-pyrazole-3-carboxylic acid (2-bromo-[1,2,4]triazolo[1,5-a]pyridin-7-yl)-amide], in that order: > 250 °C and 67.4 nM.
For `Cn1ncc(C(=O)N2CCC2)c1C(=O)Nc1ccn2nc(-c3ccncc3)nc2c1` [Example 66, 4-(Azetidine-1-carbonyl)-2-methyl-2H-pyrazole-3-carboxylic acid (2-pyridin-4-yl-[1,2,4]triazolo[1,5-a]pyridin-7-yl)-amide], in that order: > 250 °C and 1.82 nM.
The like results for `Cc1cc(-c2nc3cc(NC(=O)c4c(C(=O)N5CCC5)cnn4C)ccn3n2)ccn1` [Example 67, 4-(Azetidine-1-carbonyl)-2-methyl-2H-pyrazole-3-carboxylic acid [2-(2-methyl-pyridin-4-yl)-[1,2,4]triazolo[1,5-a]pyridin-7-yl]-amide] were, in that order, 210 to 211 °C and 2.06 nM.
For the molecule `Cc1cncc(-c2nc3cc(NC(=O)c4c(C(=O)N5CCC5)cnn4C)ccn3n2)c1` [Example 68, 4-(Azetidine-1-carbonyl)-2-methyl-2H-pyrazole-3-carboxylic acid [2-(5-methyl-pyridin-3-yl)-[1,2,4]triazolo[1,5-a]pyridin-7-yl]-amide], the melting point was 262 to 264 °C. Besides, the IC50 at human PDE10A full length is 11.2 nM.
The like results for `CN(CCF)c1nc2cc(NC(=O)c3c(C(=O)N4CCC4)cnn3C)ccn2n1` [Example 70, 4-(Azetidine-1-carbonyl)-2-methyl-2H-pyrazole-3-carboxylic acid {2-[(2-fluoro-ethyl)-methyl-amino]-[1,2,4]triazolo[1,5-a]pyridin-7-yl}-amide] were, in that order, 236 to 237 °C and 5.65 nM.
For `CN(CCF)c1nc2cc(NC(=O)c3c(C(=O)N4CCOCC4)cnn3C)ccn2n1` [Example 71, 2-Methyl-4-(morpholine-4-carbonyl)-2H-pyrazole-3-carboxylic acid {2-[(2-fluoro-ethyl)-methyl-amino]-[1,2,4]triazolo[1,5-a]pyridin-7-yl}-amide], in that order: 144 to 145 °C and 6.21 nM.
`CN(C)C(=O)c1cnn(C)c1C(=O)Nc1ccn2nc(N(C)CCF)nc2c1` [Example 72, 2-Methyl-2H-pyrazole-3,4-dicarboxylic acid 4-dimethylamide 3-({2-[(2-fluoro-ethyl)-methyl-amino]-[1,2,4]triazolo[1,5-a]pyridin-7-yl}-amide)] returned a melting point of 203 to 204 °C. Also, at human PDE10A full length, the IC50 was determined as 20.6 nM.
For `CCN(C)C(=O)c1cnn(C)c1C(=O)Nc1ccn2nc(N(C)CCF)nc2c1` [Example 73, 2-Methyl-2H-pyrazole-3,4-dicarboxylic acid 4-(ethyl-methyl-amide) 3-({2-[(2-fluoro-ethyl)-methyl-amino]-[1,2,4]triazolo[1,5-a]pyridin-7-yl}-amide)], in that order: 145 to 147 °C and 11.6 nM.
For `CN(CCF)c1nc2cc(NC(=O)c3c(C(=O)N(C)C4CC4)cnn3C)ccn2n1` [Example 74, 2-Methyl-2H-pyrazole-3,4-dicarboxylic acid 4-(cyclopropyl-methyl-amide)3-({2-[(2-fluoro-ethyl)-methyl-amino]-[1,2,4]triazolo[1,5-a]pyridin-7-yl}-amide)], in that order: 148 to 151 °C and 1.86 nM.
The like results for `COc1ccccc1-c1nc2cc(NC(=O)c3c(C(=O)N4CCC4)cnn3C)ccn2n1` [Example 102, 4-(Azetidine-1-carbonyl)-2-methyl-2H-pyrazole-3-carboxylic acid [2-(2-methoxy-phenyl)-[1,2,4]triazolo[1,5-a]pyridin-7-yl]-amide] were, in that order, 258.1 °C and 0.65 nM.
`COc1ccccc1-c1nc2cc(NC(=O)c3c(C(=O)N(C)C4CC4)cnn3C)ccn2n1` [Example 103, 2-Methyl-2H-pyrazole-3,4-dicarboxylic acid 4-(cyclopropyl-methyl-amide)3-{[2-(2-methoxy-phenyl)-[1,2,4]triazolo[1,5-a]pyridin-7-yl]-amide}]: the melting point came out at 239.2 °C. Further, on human PDE10A full length, the IC50 amounted to 0.31 nM.
The like results for `CN(C)C(=O)c1cnn(C)c1C(=O)Nc1ccn2nc(-c3cccc(F)c3)nc2c1` [Example 104, 2-Methyl-2H-pyrazole-3,4-dicarboxylic acid 4-dimethylamide 3-{[2-(3-fluoro-phenyl)[1,2,4]triazolo[1,5-a]pyridin-7-yl]-amide}] were, in that order, 255 to 260 °C and 1.43 nM.
Take `Cn1ncc(C(=O)N2CCC2)c1C(=O)Nc1ccn2nc(-c3cccc(F)c3)nc2c1` [Example 105, 4-(Azetidine-1-carbonyl)-2-methyl-2H-pyrazole-3-carboxylic acid [2-(3-fluoro-phenyl)-[1,2,4]triazolo[1,5-a]pyridin-7-yl]-amide]: the melting point is 232 to 236 °C. Besides, the IC50 at human PDE10A full length came out at 1.11 nM.
For the molecule `Cn1ncc(C(=O)N2CCOCC2)c1C(=O)Nc1ccn2nc(-c3cccc(F)c3)nc2c1` [Example 106, 2-Methyl-4-(morpholine-4-carbonyl)-2H-pyrazole-3-carboxylic acid [2-(3-fluoro-phenyl)-[1,2,4]triazolo[1,5-a]pyridin-7-yl]-amide], the melting point is 212 to 214 °C. Further, the IC50 at human PDE10A full length is 1.54 nM.
For `COC1CN(C(=O)c2cnn(C)c2C(=O)Nc2ccn3nc(-c4cccc(F)c4)nc3c2)C1` [Example 107, 4-(3-Methoxy-azetidine-1-carbonyl)-2-methyl-2H-pyrazole-3-carboxylic acid [2-(3-fluoro-phenyl)-[1,2,4]triazolo[1,5-a]pyridin-7-yl]-amide], in that order: 255 to 257 °C and 4.7 nM.
